Patent US6410508B1 (priority 1998, dated 2002)

Tests used:
[1] = system: SaOS2 cells; assay: Intracellular calcium measurement with fura-2 in SaOS2 cells; type: cell-based, human; conditions: fura-2, dose-dependent response
Procedure: (§1) Peak increases in intracellular calcium from four different experiments were calculated. Data is expressed as mean±SEM; *=p<0.001; **=p<0.001. […] Cellular cAMP was measured with a commercially available radioimmunoassay (Biomedical Technologies, Stoughton, Mass.). Data is expressed as mean+SEM; **=p<0.001.
Intracellular calcium measurements were made as described by Gasalla-Herraiz, et al., Biochem Biophys Res Commun 214:373-88 (1995). Briefly, SaOS2 cells were grown in 75 cm^2 flasks and removed by incubating in PBS/EGTA. Cells were loaded with the calcium sensitive dye fara-2AM in KRB, for 45 min at room temperature. The cells were then centrifuged and resuspended in KRB. After approximately 30 minutes at room temperature, to allow esterase cleavage of fura-2AM to fura-2, the cells were again centrifuged and placed in a cuvette in a dual-wavelength spectrophotometer (Photon Technologies International, South Brunswick, N.J.). Fluorescence was then measured using excitation wavelengths of 340 and 380 nm and an emission wavelength of 510 nm. Autoflourescence was measured in unloaded cells and this value subtracted from all the measurements.

[2] = system: SaOS2 cells; assay: Cellular cAMP content by radioimmunoassay in SaOS2 cells; type: cell-based, human; conditions: GIP 1 μM
Procedure: as §1
cAMP measurements were done as described by Isales, et al., Endocrinology 129:489-95 (1991). Briefly, SaOS2 cells were grown to confluence in 60 mm^2 dishes and placed in KRB for 24 hours before use. In order to facilitate the measurement of cAMP production, 1 mM isomethylbutylxanthine (IBMX) was added prior to agonist addition for 10 minutes, followed by incubation with agonist for 10 minutes. Incubations were stopped by addition of 5% TCA, left on ice for 15 minutes and the cell extract collected. The extracts were neutralized by addition of a 1:1 solution ice cold Freon/Tri-N-octylamine (4:1,v/v). Each sample was vortexed for at least 30 sec to ensure adequate mixing. The mixture was then centrifaged at 2,500 rpm for 20 minutes ([…]). The top aqueous phase containing the cAMP was collected. The pH of the upper phase was checked to ensure adequate neutralization. The samples were stored at −70° C. until analysis. cAMP was measured using a commercially available radioimmunoassay (Biomedical Technologies, Stoughton, Mass.). […]

[3] = system: SaOS2 cells; assay: Collagen type I mRNA expression by northern blot in SaOS2 cells; type: cell-based, human
Procedure: After 24 hourg, total RNA was extracted and probed with a collagen type I specific probe. The autoradiographs were then scanned and the densitometry quantified on a Sun Sparc station using Bioimage software. (n=4, *=p<0.001). […] The densitometry of four different experiments was summed and is expressed as a bar graph; *=p<0.001 vs control, as a function of time, in FIG. 2A.
After 24 hours, total RNA was extracted from cells using Trizol. RNA (20 μg) was electrophoresed on a 1.2% agarose-formaldehyde gel and transferred to a nylon filter. The blots were hybridized overnight at 65° C. with a ^32P-labeled probe (10^6 cpm/ml), labeled by the random-priming method and washed at a maximum stringency. Blots were exposed to Kodak XAR 5 film and analyzed by densitometry, quantified on a Sun Sparc station using Bioimage software. (n=4, *=p<0.001). The collagen densitometry was normalized to GAPDH, a housekeeping gene, found not to change in response to GIP.
Total RNA was extracted from cells using Trizol (Gaithersburg, Md.). RNA was stored at −70° C. until use. RNA (20 μg) was electrophoresed on a 1.2% agarose-formaldehyde gel and transferred to a nylon filter. The blots were hybridized overnight at 65° C. with a ^32P-labeled probe (10^6 cpm/ml), labeled by the random-priming method and washed at maximum stringency. Hybridization was carried out in a solution of 7% SDS, 1% BSA, 1 mM EDTA, 250 mM Na2HPO4. The hybridized filters were washed with four 5 min washes of 2×SSC, 0.1% SDS at room temperature and twice in 0.1×SSC, 0.1% SDS for 30 min at 65° C. The blots were then exposed to Kodak XAR 5 film. The probes used were GAPDH (ATCC clone 57090), collagen 1 (i.m.a.g.e. clone# 308919) and a human GIPR fragment derived by PCR corresponding to transmembrane domains 2 to 7.

[4] = system: MG63 cells; assay: Alkaline phosphatase activity in MG63 cells; type: cell-based, human
Procedure: Shown are the Means±SEM of triplicates of four different experiments. *=p<0.05; +=p<0.001.
Alkaline phosphatase (ALP) activity was measured using a commercially available assay kit (ALP […] Colorimetric test; Sigma Diagnostic, St. Louis, Mo.). This kit measures the conversion of p-nitrophenyl phosphate top-nitrophenol and inorganic phosphate. The change in absorbance at 405 nm is directly proportional to ALP activity. MG 63 cells were grown in 6 well plates incubated with the indicated agonist for the indicated times (medium was changed daily with readdition of fresh agonist) and samples collected. The kit reagents were added to the sample cuvette in the spectrophotometer at 30° C. and absorbances at 405 nm obtained at 1, 2 and 3 minutes. ALP activity (U/L) was determined using the change in absorbance with time and a millimolar absorptivity of p-nitrophenol at 405 nm of 18.45.

[5] = system: fetal radius and ulna bone explants; assay: Fetal long bone resorption assay (45Ca release); type: cell-based, rat; conditions: 10 nM PTH, GIP 10 nM
Procedure: Pregnant Sprague-Dawley rats (Charles River Laboratories, Kingston, N.Y.) were injected with 200 μCi^45Ca on day 18 of gestation and killed one day later to remove the labeled fetal radius and ulna. […] Medium was changed every 3 days and ^45Ca was measured after every culture period. Resorption is expressed as the ratio of ^45Ca released from treated versus control bones.

[6] = system: ovariectomized (OVX) rat; assay: Bone mineral density by DXA in ovariectomized and non-OVX rats; type: in vivo, Sprague-Dawley rats; conditions: six weeks
From the text: 1. Control. Five non-OVX rats received daily injections at the same time everyday (09:00) of saline vehicle for six weeks into the tail vein.
3. OVX. Six OVX rats received saline vehicle injected daily for six weeks.

[7] = target: receptors for GIP; conditions: pancreatic β cells; depending on the cell system and the source of GIP (human versus porcine); read-out: binding affinity; cited from earlier work

Q: Which “GIP concentration at which a significant increase in [Ca2+]i occurs” value [1] does the source give for `CC[C@H](C)[C@H](NC(=O)[C@H](CO)NC(=O)[C@H](Cc1ccc(O)cc1)NC(=O)[C@H](CC(=O)O)NC(=O)[C@H](CO)NC(=O)[C@@H](NC(=O)[C@H](Cc1ccccc1)NC(=O)[C@@H](NC(=O)CNC(=O)[C@H](CCC(=O)O)NC(=O)[C@H](C)NC(=O)[C@@H](N)Cc1ccc(O)cc1)[C@@H](C)O)[C@@H](C)CC)C(=O)N[C@@H](C)C(=O)N[C@@H](CCSC)C(=O)N[C@@H](CC(=O)O)C(=O)N[C@@H](CCCCN)C(=O)N[C@H](C(=O)N[C@@H](Cc1c[nH]cn1)C(=O)N[C@@H](CCC(N)=O)C(=O)N[C@@H](CCC(N)=O)C(=O)N[C@@H](CC(=O)O)C(=O)N[C@@H](Cc1ccccc1)C(=O)N[C@H](C(=O)N[C@@H](CC(N)=O)C(=O)N[C@@H](Cc1c[nH]c2ccccc12)C(=O)N[C@@H](CC(C)C)C(=O)N[C@@H](CC(C)C)C(=O)N[C@@H](C)C(=O)N[C@@H](CCC(N)=O)C(=O)N[C@@H](CCCCN)C(=O)NCC(=O)N[C@@H](CCCCN)C(=O)N[C@@H](CCCCN)C(=O)N[C@@H](CC(N)=O)C(=O)N[C@@H](CC(=O)O)C(=O)N[C@@H](Cc1c[nH]c2ccccc12)C(=O)N[C@@H](CCCCN)C(=O)N[C@@H](Cc1c[nH]cn1)C(=O)N[C@@H](CC(N)=O)C(=O)N[C@H](C(=O)N[C@H](C(=O)N[C@@H](CCC(N)=O)C(=O)O)[C@@H](C)O)[C@@H](C)CC)C(C)C)[C@@H](C)CC` [GIP, Glucose-dependent Insulinotropic Peptide] here?
A: The value was 0.1 nM.

Q: What about the “elevation in cellular cAMP content” value [2] of the same compound?
A: Its value is 710 % above control.

Q: And the “time course of GIP effect on collagen mRNA” value ([3]; 1 nM GIP, 0-12 hours)?
A: Its value is “after six hours of stimulation”.

Q: What about the “effect on collagen synthesis” value ([3]; higher doses (0.10, and 100 nM)) of the same compound?
A: Its value is “maximal effect”.

Q: And the “effect on collagen synthesis” value ([3]; lower GIP dose 0.1 nM)?
A: Its value is “no effect”.

Q: What about the “GIP concentration significantly increasing ALP activity” value [4] of the same compound?
A: Its value is 0.1 nM.

Q: What about the “onset of ALP activity increase” value ([4]; 0.1 nM GIP, 1-6 days) of the same compound?
A: The value was “as early as two days after stimulation”.

Q: And the “GIP effect on ALP versus positive control” value ([4]; 0.1 nM GIP, control 1,25 vitamin D (10 ng/ml)+TGF-β (10 ng/ml))?
A: Its value is “larger than that observed with 1,25 vitamin D”.

Q: What about the “ALP activity at higher doses versus 0.1 nM” value ([4]; GIP 1-10 nM) of the same compound?
A: Its value is “did not increase ALP activity any further”.

Q: And the PTH-induced bone resorption [5]?
A: Its PTH-induced bone resorption is “inhibits PTH-induced bone resorption”.

Q: What about the “bone density versus controls” value ([6]; OVX rats treated with GIP) of the same compound?
A: Its value is “not statistically different from controls”.

Q: What about the “densitometry of the whole extremity” value ([6]; all experimental groups) of the same compound?
A: Its value is “no different among the various experimental groups”.

Q: And the “bone density versus untreated animals” value ([6]; non-OVX control rats, GIP 0.05 mg/kg daily)?
A: The value was “lower bone density than the untreated animals, this difference was not statistically significant”.

Q: And the Kd [7]?
A: Its Kd is 0.3 to 30 nM.
